Data taken from PubChem BioAssay (NCI).
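All cell lines were grown in 96-well plates and treated with compound for 48 hours. TGI is the concentration that stops growth completely.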

Tests used:
Assay in all cases: NCI tumour cell line growth inhibition, 48 h
[1] = tested on: 786-0 renal
[2] = tested on: A498 renal
[3] = tested on: A549 NSCLC
[4] = tested on: BT-549 breast
[5] = tested on: CAKI-1 renal
[6] = tested on: CCRF-CEM leukemia
[7] = tested on: COLO 205 colon
[8] = tested on: DLD-1 colon
[9] = tested on: DMS 114 small cell lung
[10] = tested on: DMS 273 small cell lung
[11] = tested on: DU-145 prostate
[12] = tested on: EKVX NSCLC
[13] = tested on: HCC-2998 colon
[14] = tested on: HCT-15 colon
[15] = tested on: HL-60(TB) leukemia
[16] = tested on: HOP-18 NSCLC
[17] = tested on: HOP-62 NSCLC
[18] = tested on: HOP-92 NSCLC
[19] = tested on: HS 578T breast
[20] = tested on: HT29 colon
[21] = tested on: IGROV1 ovarian
[22] = tested on: K-562 leukemia
[23] = tested on: KM12 colon
[24] = tested on: KM20L2 colon
[25] = tested on: LOX IMVI melanoma
[26] = tested on: M14 melanoma
[27] = tested on: M19-MEL melanoma
[28] = tested on: MALME-3M melanoma
[29] = tested on: MCF7 breast
[30] = tested on: MDA-MB-231 breast
[31] = tested on: MDA-MB-435
[32] = tested on: MDA-N
[33] = tested on: MOLT-4 leukemia
[34] = tested on: NCI-H226 lung
[35] = tested on: NCI-H23 lung
[36] = tested on: NCI-H460 lung
[37] = tested on: NCI-H522 lung
[38] = tested on: NCI/ADR-RES ovarian
[39] = tested on: OVCAR-3 ovarian
[40] = tested on: OVCAR-4 ovarian
[41] = tested on: OVCAR-5 ovarian
[42] = tested on: OVCAR-8 ovarian
[43] = tested on: P388 leukemia
[44] = tested on: PC-3 prostate
[45] = tested on: RPMI-8226 leukemia
[46] = tested on: RXF 393 renal
[47] = tested on: SF-268 CNS
[48] = tested on: SF-295 CNS
[49] = tested on: SF-539 CNS
[50] = tested on: SK-MEL-2 melanoma
[51] = tested on: SK-MEL-28 melanoma
[52] = tested on: SK-MEL-5 melanoma
[53] = tested on: SK-OV-3 ovarian
[54] = tested on: SN12C renal
[55] = tested on: SN12K1 renal
[56] = tested on: SNB-19 CNS
[57] = tested on: SNB-75 CNS
[58] = tested on: SNB-78 CNS
[59] = tested on: SR leukemia
[60] = tested on: SW-620 colon
[61] = tested on: T-47D breast
[62] = tested on: TK-10 renal
[63] = tested on: U251 CNS
[64] = tested on: UACC-257 melanoma
[65] = tested on: UACC-62 melanoma
[66] = tested on: UO-31 renal
[67] = tested on: ACHN renal
[68] = tested on: HCT-116 colon
[69] = tested on: LXFL 529 NSCLC
[70] = tested on: RXF-631 renal
[71] = tested on: XF 498 CNS

## CO[C@H]1Nc2c(ccc(C)c2O)C(=O)N2C=C(/C=C/C(N)=O)C[C@@H]12
[1]
  TGI: 2.03 µM
[2]
  TGI: 0.495 µM
[3]
  TGI: > 72.3 µM
[4]
  TGI: < 0.0479 µM
[5]
  TGI: 0.211 µM
[6]
  TGI: > 50.6 µM
[7]
  TGI: 0.1 µM
[8]
  TGI: > 47.6 µM
[9]
  TGI: 0.044 µM
[10]
  TGI: 0.118 µM
[11]
  TGI: > 62 µM
[12]
  TGI: 1.03 µM
[13]
  TGI: 0.132 µM
[14]
  TGI: 0.758 µM
[15]
  TGI: 0.456 µM
[16]
  TGI: > 100 µM
[17]
  TGI: 0.0386 µM
[18]
  TGI: 0.217 µM
[19]
  TGI: 0.0407 µM
[20]
  TGI: 1.51 µM
[21]
  TGI: 7.33 µM
[22]
  TGI: 27.8 µM
[23]
  TGI: 7.2 µM
[24]
  TGI: 0.891 µM
[25]
  TGI: 1.29 µM
[26]
  TGI: 0.0406 µM
[27]
  TGI: 0.0939 µM
[28]
  TGI: 0.0591 µM
[29]
  TGI: 8.05 µM
[30]
  TGI: 0.0333 µM
[31]
  TGI: 0.0293 µM
[32]
  TGI: 0.0283 µM
[33]
  TGI: 6.29 µM
[34]
  TGI: 0.47 µM
[35]
  TGI: 0.354 µM
[36]
  TGI: 31.1 µM
[37]
  TGI: 0.182 µM
[38]
  TGI: 0.085 µM
[39]
  TGI: 0.192 µM
[40]
  TGI: 0.686 µM
[41]
  TGI: 5.45 µM
[42]
  TGI: 2.01 µM
[43]
  TGI: 0.283 µM
[44]
  TGI: 0.656 µM
[45]
  TGI: 8.51 µM
[46]
  TGI: 0.233 µM
[47]
  TGI: 0.411 µM
[48]
  TGI: 1.75 µM
[49]
  TGI: 0.0384 µM
[50]
  TGI: 0.0223 µM
[51]
  TGI: 0.0829 µM
[52]
  TGI: 0.0308 µM
[53]
  TGI: 3.72 µM
[54]
  TGI: 1.05 µM
[55]
  TGI: 0.0473 µM
[56]
  TGI: > 58.2 µM
[57]
  TGI: 0.0576 µM
[58]
  TGI: 18.4 µM
[59]
  TGI: > 100 µM
[60]
  TGI: 17.7 µM
[61]
  TGI: > 7.99 µM
[62]
  TGI: 7.95 µM
[63]
  TGI: 10.8 µM
[64]
  TGI: 0.134 µM
[65]
  TGI: 0.036 µM
[66]
  TGI: 0.0451 µM

## CN(C(=O)c1ccc([N+](=O)[O-])cc1)c1ccccc1
[1]
  TGI: > 100 µM
[2]
  TGI: > 100 µM
[3]
  TGI: > 100 µM
[67]
  TGI: > 100 µM
[5]
  TGI: > 100 µM
[6]
  TGI: > 100 µM
[7]
  TGI: > 100 µM
[8]
  TGI: > 100 µM
[9]
  TGI: > 10 µM
[10]
  TGI: > 100 µM
[12]
  TGI: > 100 µM
[13]
  TGI: > 100 µM
[68]
  TGI: > 100 µM
[14]
  TGI: > 100 µM
[16]
  TGI: > 100 µM
[17]
  TGI: > 100 µM
[18]
  TGI: > 100 µM
[20]
  TGI: > 100 µM
[21]
  TGI: > 100 µM
[22]
  TGI: > 10 µM
[23]
  TGI: > 100 µM
[24]
  TGI: > 100 µM
[25]
  TGI: > 100 µM
[69]
  TGI: > 100 µM
[26]
  TGI: > 100 µM
[27]
  TGI: > 100 µM
[28]
  TGI: > 100 µM
[33]
  TGI: > 100 µM
[34]
  TGI: > 100 µM
[35]
  TGI: > 100 µM
[36]
  TGI: > 100 µM
[37]
  TGI: > 100 µM
[39]
  TGI: > 100 µM
[40]
  TGI: > 100 µM
[41]
  TGI: > 100 µM
[42]
  TGI: > 100 µM
[45]
  TGI: > 100 µM
[46]
  TGI: > 100 µM
[70]
  TGI: > 100 µM
[47]
  TGI: > 100 µM
[48]
  TGI: > 100 µM
[49]
  TGI: > 100 µM
[51]
  TGI: > 100 µM
[53]
  TGI: > 100 µM
[54]
  TGI: > 100 µM
[56]
  TGI: > 100 µM
[57]
  TGI: > 100 µM
[58]
  TGI: > 100 µM
[60]
  TGI: > 100 µM
[63]
  TGI: > 100 µM
[64]
  TGI: > 100 µM
[65]
  TGI: > 10 µM
[66]
  TGI: > 100 µM
[71]
  TGI: > 100 µM

## COC(=O)C(=O)C(C(C)=O)C(=O)NCc1ccc(OC)c(OC)c1 (stereo not drawn)
[1]
  TGI: > 100 µM
[2]
  TGI: > 100 µM
[3]
  TGI: > 100 µM
[67]
  TGI: > 100 µM
[5]
  TGI: > 100 µM
[6]
  TGI: > 100 µM
[7]
  TGI: > 100 µM
[8]
  TGI: > 100 µM
[9]
  TGI: > 100 µM
[10]
  TGI: > 100 µM
[12]
  TGI: > 100 µM
[13]
  TGI: > 100 µM
[68]
  TGI: > 100 µM
[14]
  TGI: > 100 µM
[15]
  TGI: > 100 µM
[16]
  TGI: > 100 µM
[17]
  TGI: > 100 µM
[18]
  TGI: > 100 µM
[20]
  TGI: > 100 µM
[21]
  TGI: > 100 µM
[22]
  TGI: > 100 µM
[23]
  TGI: > 100 µM
[24]
  TGI: > 100 µM
[25]
  TGI: > 100 µM
[69]
  TGI: > 100 µM
[26]
  TGI: > 100 µM
[27]
  TGI: > 100 µM
[28]
  TGI: > 100 µM
[33]
  TGI: > 100 µM
[34]
  TGI: > 100 µM
[35]
  TGI: > 100 µM
[36]
  TGI: > 100 µM
[37]
  TGI: > 100 µM
[39]
  TGI: > 100 µM
[40]
  TGI: > 100 µM
[41]
  TGI: > 100 µM
[42]
  TGI: > 100 µM
[46]
  TGI: > 100 µM
[70]
  TGI: > 100 µM
[47]
  TGI: > 100 µM
[48]
  TGI: > 100 µM
[49]
  TGI: > 100 µM
[50]
  TGI: > 100 µM
[51]
  TGI: > 100 µM
[52]
  TGI: > 100 µM
[53]
  TGI: > 100 µM
[54]
  TGI: > 100 µM
[56]
  TGI: > 100 µM
[57]
  TGI: > 100 µM
[58]
  TGI: > 100 µM
[59]
  TGI: > 100 µM
[60]
  TGI: > 100 µM
[62]
  TGI: > 100 µM
[63]
  TGI: > 100 µM
[64]
  TGI: > 100 µM
[65]
  TGI: > 100 µM
[66]
  TGI: > 100 µM
[71]
  TGI: > 100 µM
